Results: patent US6914045B2, “Glycopeptide antibiotics” (Wyeth Holdings Corporation, priority 2001, dated 2005)
Numbered stars: 1 amine (or outer) side, 2 acyl side, 3 side chain; on linkers, the order of the positions; unused ones are H or OH. Square brackets hold non-standard residues; d marks the D form. Peptide text beside a SMILES is read from it. * marks the point of attachment. ξ: configuration not given here. X1 = N=C1NCC(C(O)C(N[*:1])C(=O)[*:2])N1C1OC(CO)C(O)C(O)C1O; ξEnduracididine(βξ-OH,4'ξ) = N=C1NCC(C(O)C(N)C(=O)O)N1; ξPhe(4-Cl,βξ-Me) = CC(c1ccc(Cl)cc1)C(N)C(=O)O; X2 = OCC1OC(OC2C(CO)OC(*)C(O)C2O)C(O)C(O)C1O

What was measured:
Assay in all cases: in vitro antibacterial evaluation, MIC by broth dilution
Format in all cases: cell-based
Enterococcus sp. = details: broth dilution, 18 hours at 35° C.
In short: (§1)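 Step 1: dilute antibiotic across 64-0.06 μg/mL in Muller-Hinton II […]. Step 2: inoculate at 5×10^5 CFU/mL.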

Streptococcus sp. = details: broth dilution, 18 hours at 35° C.
In short: as §1

Staphylococcus sp. = details: broth dilution, 18 hours at 35° C.
In short: as §1

Escherichia coli = details: 18 hours at 35° C.
In short: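 Test organisms, which included recent clinical isolates resistant to methicillin, penicillin and/or vancomycin, were inoculated at 5×10^5 CFU/mL into Muller-Hinton II […] containing antibiotic at 64-0.06 μg/mL. Minimum inhibitory concentrations were then read as the lowest level inhibiting growth.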

[1] = Enterococcus faecalis (ATCC 29212)
[2] = Enterococcus faecalis (GC 4553)
[3] = Enterococcus faecalis (GC 4554)

CC(c1ccc(Cl)cc1)C1NC(=O)CNC(=O)C(CO)NC(=O)C(C(O)C2CNC(=N)N2C2OC(CO)C(O)C(O)C2O)NC(=O)C(C(O)C2CNC(=N)N2)NC(=O)C(Cc2ccc(OC3OC(CO)C(OC4OC(CO)C(O)C(O)C4O)C(O)C3O)cc2)NC1=O (stereo not drawn) [Example 262a, Cyclo[glycyl-4-chloro-β-methylphenylalanyl-O-(4-O-hexopyranosylhexopyranosyl)tyrosyl-3-(2-iminoimidazolidin-4-yl)seryl-3-(3-hexoopyranosyl-2-iminoimidazolidin-4-yl)serylseryl]] (cyclo(G[ξPhe(4-Cl,βξ-Me)]Y(X2)[ξEnduracididine(βξ-OH,4'ξ)][X1]S); configuration not given here)
128 µg/mL: MIC Coagulase Negative Staphylococcus (GC 4551) (Staphylococcus sp.) | MIC Staphylococcus aureus (GC 1131) (Staphylococcus sp.) | MIC Staphylococcus aureus (GC 1131) (Staphylococcus sp.; strain GC 1131) | MIC Coagulase Negative Staphylococcus (GC 4551) (Staphylococcus sp.; strain GC 4551)
32 µg/mL: MIC Streptococcus agalactiae (GC 4564) (Streptococcus sp.; strain GC 4564) | MIC Streptococcus pyogenes (ID-3187) (Streptococcus sp.; strain ID-3187)
>128 µg/mL: MIC Enterococcus avium (GC 4558) (Enterococcus sp.; Enterococcus avium (GC 4558)) | MIC Enterococcus faecalis (ATCC 29212) (Enterococcus sp.; [1]) | MIC Enterococcus faecalis (GC 4553) (Enterococcus sp.; [2]) | MIC Enterococcus faecalis (GC 4554) (Enterococcus sp.; [3]) | MIC Enterococcus faecium (GC 2243) (Enterococcus sp.; Enterococcus faecium (GC 2243)) | MIC Enterococcus faecium (GC 4556) (Enterococcus sp.; Enterococcus faecium (GC 4556)) | MIC Enterococcus faecium (GC 4557) (Enterococcus sp.; Enterococcus faecium (GC 4557)) | MIC Enterococcus faecalis (ATCC 29212) (Enterococcus sp.; strain ATCC 29212) | MIC Enterococcus faecalis (GC 2242) (Enterococcus sp.; strain GC 2242) | MIC Enterococcus faecium (GC 2243) (Enterococcus sp.; strain GC 2243) | MIC Enterococcus faecalis (GC 4552) (Enterococcus sp.; strain GC 4552) | MIC Enterococcus faecalis (GC 4553) (Enterococcus sp.; strain GC 4553) | MIC Enterococcus faecalis (GC 4554) (Enterococcus sp.; strain GC 4554) | MIC Enterococcus faecium (GC 4556) (Enterococcus sp.; strain GC 4556) | MIC Enterococcus faecium (GC 4557) (Enterococcus sp.; strain GC 4557) | MIC Enterococcus avium (GC 4558) (Enterococcus sp.; strain GC 4558) | MIC Staphylococcus aureus (GC 4542) (Staphylococcus sp.) | MIC Staphylococcus aureus (GC 4542) (Staphylococcus sp.; strain GC 4542) | MIC Escherichia coli (ATCC 25922) (Escherichia coli; Escherichia coli (ATCC 25922)) | MIC Escherichia coli (GC 4559) (Escherichia coli; Escherichia coli (GC 4559))
64 µg/mL: MIC Coagulase Negative Staphylococcus (GC 4547) (Staphylococcus sp.) | MIC Coagulase Negative Staphylococcus (GC 4548) (Staphylococcus sp.) | MIC Staphylococcus aureus (ATCC 29213) (Staphylococcus sp.) | MIC Staphylococcus aureus (GC 4541) (Staphylococcus sp.) | MIC Staphylococcus aureus (GC 4544) (Staphylococcus sp.) | MIC Staphylococcus aureus (GC 4545) (Staphylococcus sp.) | MIC Staphylococcus aureus-SMITH (GC 4543) (Staphylococcus sp.) | MIC Staphylococcus haemolyticus (GC 4546) (Staphylococcus sp.) | MIC Staphylococcus aureus (ATCC 29213) (Staphylococcus sp.; strain ATCC 29213) | MIC Staphylococcus aureus (GC 4541) (Staphylococcus sp.; strain GC 4541) | MIC Staphylococcus aureus (GC 4544) (Staphylococcus sp.; strain GC 4544) | MIC Staphylococcus aureus (GC 4545) (Staphylococcus sp.; strain GC 4545) | MIC Staphylococcus haemolyticus (GC 4546) (Staphylococcus sp.; strain GC 4546) | MIC Coagulase Negative Staphylococcus (GC 4547) (Staphylococcus sp.; strain GC 4547) | MIC Coagulase Negative Staphylococcus (GC 4548) (Staphylococcus sp.; strain GC 4548) | MIC Staphylococcus aureus-SMITH (GC 4543) (Staphylococcus sp.; strain SMITH GC 4543)
16 µg/mL: MIC Coagulase Negative Staphylococcus (GC 4549) (Staphylococcus sp.) | MIC Coagulase Negative Staphylococcus (GC 4549) (Staphylococcus sp.; strain GC 4549) | MIC Escherichia coli (GC 4560) (Escherichia coli; Escherichia coli (GC 4560))

CC(C)=CCCC1OCC2OC(OC3C(CO)OC(Oc4ccc(CC5NC(=O)C(C(C)c6ccccc6)NC(=O)CNC(=O)C(CO)NC(=O)C(C(O)C6CNC(=N)N6C6OC(CO)C(O)C(O)C6O)NC(=O)C(C(O)C6CNC(=N)N6)NC5=O)cc4)C(O)C3O)C(O)C(O)C2O1 (stereo not shown) [Example 123]
1 µg/mL: MIC Streptococcus pneumoniae (ATCC 6301) (Streptococcus sp.; Streptococcus pneumoniae (ATCC 6301)) | MIC Streptococcus pneumoniae (GC 1894) (Streptococcus sp.; Streptococcus pneumoniae (GC 1894)) | MIC Streptococcus pneumoniae (ATCC 6301) (Streptococcus sp.; strain ATCC 6301) | MIC Streptococcus pneumoniae (GC 1894) (Streptococcus sp.; strain GC 1894)
2 µg/mL: MIC Streptococcus agalactiae (GC 4564) (Streptococcus sp.; Streptococcus agalactiae (GC 4564)) | MIC Streptococcus pneumoniae (GC 4565) (Streptococcus sp.; Streptococcus pneumoniae (GC 4565)) | MIC Streptococcus agalactiae (GC 4564) (Streptococcus sp.; strain GC 4564) | MIC Streptococcus pneumoniae (GC 4565) (Streptococcus sp.; strain GC 4565)
4 µg/mL: MIC Staphylococcus aureus (GC 4541) (Staphylococcus sp.) | MIC Staphylococcus aureus (GC 4542) (Staphylococcus sp.) | MIC Staphylococcus aureus (GC 4541) (Staphylococcus sp.; strain GC 4541) | MIC Staphylococcus aureus (GC 4542) (Staphylococcus sp.; strain GC 4542) | MIC Staphylococcus aureus-SMITH (GC 4543) (Staphylococcus sp.; strain GC 4543) | MIC Coagulase Negative Staphylococcus (GC 4548) (Staphylococcus sp.; strain GC 4548) | MIC Coagulase Negative Staphylococcus (GC 4549) (Staphylococcus sp.; strain GC 4549) | MIC Coagulase Negative Staphylococcus (GC 6257) (Staphylococcus sp.; strain GC 6257) | MIC Staphylococcus aureus-SMITH (GC 4543) (Staphylococcus sp.; strain SMITH GC 4543)
0.5 µg/mL: MIC Streptococcus pyogenes (GC 4563) (Streptococcus sp.; Streptococcus pyogenes (GC 4563)) | MIC Streptococcus pyogenes (GC 4563) (Streptococcus sp.; strain GC 4563)
16 µg/mL: MIC Enterococcus avium (GC 4558) (Enterococcus sp.; Enterococcus avium (GC 4558)) | MIC Enterococcus faecalis (GC 2691) (Enterococcus sp.; Enterococcus faecalis (GC 2691)) | MIC Enterococcus faecalis (GC 3059) (Enterococcus sp.; Enterococcus faecalis (GC 3059)) | MIC Enterococcus faecalis (GC 4553) (Enterococcus sp.; [2]) | MIC Enterococcus faecalis (GC 4554) (Enterococcus sp.; [3]) | MIC Enterococcus faecalis (GC 2691) (Enterococcus sp.; strain GC 2691) | MIC Enterococcus faecalis (GC 3059) (Enterococcus sp.; strain GC 3059) | MIC Enterococcus faecalis (GC 4553) (Enterococcus sp.; strain GC 4553) | MIC Enterococcus faecalis (GC 4554) (Enterococcus sp.; strain GC 4554) | MIC Enterococcus avium (GC 4558) (Enterococcus sp.; strain GC 4558)
>64 µg/mL: MIC Escherichia coli (ATCC 25922) (Escherichia coli; strain ATCC 25922) | MIC Escherichia coli (GC 4559) (Escherichia coli; strain GC 4559)
8 µg/mL: MIC Enterococcus faecalis (ATCC 29212) (Enterococcus sp.; [1]) | MIC Enterococcus faecalis (GC 2242) (Enterococcus sp.; Enterococcus faecalis (GC 2242)) | MIC Enterococcus faecalis (GC 4552) (Enterococcus sp.; Enterococcus faecalis (GC 4552)) | MIC Enterococcus faecalis (GC 6189) (Enterococcus sp.; Enterococcus faecalis (GC 6189)) | MIC Enterococcus faecium (GC 2243) (Enterococcus sp.; Enterococcus faecium (GC 2243)) | MIC Enterococcus faecium (GC 4556) (Enterococcus sp.; Enterococcus faecium (GC 4556)) | MIC Enterococcus faecium (GC 4557) (Enterococcus sp.; Enterococcus faecium (GC 4557)) | MIC Enterococcus faecalis (ATCC 29212) (Enterococcus sp.; strain ATCC 29212) | MIC Enterococcus faecalis (GC 2242) (Enterococcus sp.; strain GC 2242) | MIC Enterococcus faecium (GC 2243) (Enterococcus sp.; strain GC 2243) | MIC Enterococcus faecalis (GC 4552) (Enterococcus sp.; strain GC 4552) | MIC Enterococcus faecium (GC 4556) (Enterococcus sp.; strain GC 4556) | MIC Enterococcus faecium (GC 4557) (Enterococcus sp.; strain GC 4557) | MIC Enterococcus faecalis (GC 6189) (Enterococcus sp.; strain GC 6189) | MIC Staphylococcus aureus (ATCC 29213) (Staphylococcus sp.) | MIC Staphylococcus aureus (GC 1131) (Staphylococcus sp.) | MIC Staphylococcus aureus (GC 3051) (Staphylococcus sp.) | MIC Staphylococcus aureus (GC 3053) (Staphylococcus sp.) | MIC Staphylococcus aureus (GC 4544) (Staphylococcus sp.) | MIC Staphylococcus aureus (GC 4545) (Staphylococcus sp.) | MIC Staphylococcus aureus (GC 1131) (Staphylococcus sp.; inoculum 5×10^5 CFU/mL, strain GC 1131) | MIC Staphylococcus aureus (ATCC 29213) (Staphylococcus sp.; strain ATCC 29213) | MIC Staphylococcus aureus (GC 3051) (Staphylococcus sp.; strain GC 3051) | MIC Staphylococcus aureus (GC 3053) (Staphylococcus sp.; strain GC 3053) | MIC Staphylococcus aureus (GC 4544) (Staphylococcus sp.; strain GC 4544) | MIC Staphylococcus aureus (GC 4545) (Staphylococcus sp.; strain GC 4545) | MIC Staphylococcus haemolyticus (GC 4546) (Staphylococcus sp.; strain GC 4546) | MIC Coagulase Negative Staphylococcus (GC 4547) (Staphylococcus sp.; strain GC 4547) | MIC Coagulase Negative Staphylococcus (GC 4551) (Staphylococcus sp.; strain GC 4551) | MIC Escherichia coli (GC 4560) (Escherichia coli; strain GC 4560)
